Data reported in ChEMBL document CHEMBL5370591, “A Potent and Narrow-Spectrum Antibacterial against Clostridioides difficile Infection” (J Med Chem, 2023).
Converted amounts (≈) assume the structure as drawn. The source made the active and inactive calls. The calls are words filed in the database; no cut-off is given here.

Tests used:
Acinetobacter baumannii = assay: Antibacterial activity against Acinetobacter baumannii ATCC17961 assessed as inhibition of bacterial growth measured after 48 hrs by two fold serial dilution method; assay type: functional
Clostridioides difficile [1] = assay: Induction of resistance against Clostridium difficile ATCC 43255 assessed as fold increase in MIC measured after 14 passages under anaerobic conditions; assay type: functional
Clostridioides difficile [2] = assay: Antibacterial activity against Clostridium difficile 23828 clinical isolate assessed as inhibition of bacterial growth measured after 48 hrs by two fold serial dilution method; assay type: functional
Escherichia coli = assay: Antibacterial activity against Escherichia coli ATCC25922 assessed as inhibition of bacterial growth measured after 48 hrs by two fold serial dilution method; assay type: functional
Enterococcus faecalis = assay: Antibacterial activity against vancomycin resistant Enterococcus faecalis 99 clinical isolate assessed as inhibition of bacterial growth measured after 48 hrs by two fold serial dilution method; assay type: functional
Clostridioides difficile [3] = assay: Antibacterial activity against Clostridium difficile NR49302 isolated from human feces assessed as inhibition of bacterial growth measured after 48 hrs by two fold serial dilution method; assay type: functional
[4] = Selectivity ratio of MBC for bactericidal activity against Clostridium difficile ATCC 43255 to MIC for antibacterial activity for Clostridium difficile ATCC 43255; assay type: functional, Clostridioides difficile
Enterococcus faecium [5] = assay: Antibacterial activity against vancomycin resistant Enterococcus faecium 106 clinical isolate assessed as inhibition of bacterial growth measured after 48 hrs by two fold serial dilution method; assay type: functional
Corynebacterium sp. = assay: Antibacterial activity against Corynebacterium sp. HM-784 assessed as inhibition of bacterial growth measured after 48 hrs by two fold serial dilution method; assay type: functional
Clostridioides difficile [6] = assay: Antibacterial activity against Clostridium difficile 24531 clinical isolate assessed as inhibition of bacterial growth measured after 48 hrs by two fold serial dilution method; assay type: functional
Clostridioides difficile [7] = assay: Antibacterial activity against Clostridium difficile ATCC 43255 assessed as as time duration of post-antibiotic effect for suppression of bacterial growth at 1 time MIC incubated for 1 hr in broth solution; assay type: functional
[8] = system: Staphylococcus haemolyticus; assay: Antibacterial activity against Staphylococcus haemolyticus ATCC 29970 assessed as inhibition of bacterial growth measured after 48 hrs by two fold serial dilution method; assay type: functional
Streptococcus pyogenes = assay: Antibacterial activity against Streptococcus pyogenes ATCC 49399 assessed as inhibition of bacterial growth measured after 48 hrs by two fold serial dilution method; assay type: functional
THP-1 = assay: Cytotoxicity against human THP-1 cells assessed as increase in LDH release incubate for 24 hrs by trypan-blue staining based analysis; assay type: functional, cell-based; details: THP-1, 24 h
Clostridioides difficile [9] = assay: Antibacterial activity against Clostridium difficile ATCC 43255 assessed as log reduction in bacterial growth at 1 to 8 times MIC measured upto 48 hrs under anaerobic condition; assay type: functional
[10] = Selectivity ratio of IC50 for human HepG2 cells to MIC for Clostridium difficile ATCC 43255; assay type: toxicity
Clostridioides difficile [11] = assay: Induction of resistance against Clostridium difficile ATCC 43255 assessed as fold increase in MIC measured after 20 passages under anaerobic conditions; assay type: functional
Clostridioides difficile [12] = assay: Antibacterial activity against Clostridium difficile BAA-1803 clinical isolate assessed as inhibition of bacterial growth measured after 48 hrs by two fold serial dilution method; assay type: functional
[13] = Selectivity ratio of IC50 for human THP-1 cells to MIC for Clostridium difficile ATCC 43255; assay type: toxicity
Clostridioides difficile [14] = assay: Bactericidal activity against Clostridium difficile ATCC 43255 incubated for 48 hrs under anaerobic conditions; assay type: functional
[15] = system: Limosilactobacillus reuteri; assay: Antibacterial activity against Lactobacillus reuteri HM-102 assessed as inhibition of bacterial growth measured after 48 hrs by two fold serial dilution method; assay type: functional
Clostridioides difficile [16] = assay: Antibacterial activity against Clostridium difficile ATCC 43255 isolated from abdominal wound assessed as inhibition of bacterial growth measured after 48 hrs by two fold serial dilution method; assay type: functional
Clostridioides difficile [17] = assay: Antibacterial activity against Clostridium difficile BAA-1870 assessed as inhibition of bacterial growth measured after 48 hrs by two fold serial dilution method; assay type: functional
Clostridioides difficile [18] = assay: Antibacterial activity against Clostridium difficile 26675 clinical isolate assessed as inhibition of bacterial growth measured after 48 hrs by two fold serial dilution method; assay type: functional
Eubacterium sp. = assay: Antibacterial activity against Eubacterium sp. HM-178 assessed as inhibition of bacterial growth measured after 48 hrs by two fold serial dilution method; assay type: functional
Clostridioides difficile [19] = assay: Antibacterial activity against Clostridium difficile ATCC 43255 measured after 48 hrs by two fold serial dilution method; assay type: functional
Clostridioides difficile [20] = assay: Induction of resistance against Clostridium difficile ATCC 43255 assessed as fold increase in MIC measured after 8 passages under anaerobic conditions; assay type: functional
Clostridioides difficile [21] = assay: Antibacterial activity against Clostridium difficile ATCC 43255 assessed as as time duration of post-antibiotic effect for suppression of bacterial growth at 4 times MIC incubated for 1 hr in broth solution; assay type: functional
Clostridioides difficile [22] = assay: Antibacterial activity against Clostridium difficile NR49318 isolated from human feces assessed as inhibition of bacterial growth measured after 48 hrs by two fold serial dilution method; assay type: functional
HepG2 = assay: Antiproliferative activity against human HepG2 cells assessed as inhibition of cell growth by XTT assay; assay type: functional, cell-based
Bacteroides fragilis = assay: Antibacterial activity against Bacteroides fragilis HM-709 assessed as inhibition of bacterial growth measured after 48 hrs by two fold serial dilution method; assay type: functional
Clostridioides difficile [23] = assay: Antibacterial activity against Clostridium difficile ATCC 43255 assessed as as time duration of post-antibiotic effect for suppression of bacterial growth at 8 times MIC incubated for 1 hr in broth solution; assay type: functional
Lactobacillus gasseri = assay: Antibacterial activity against Lactobacillus gasseri HM-644 assessed as inhibition of bacterial growth measured after 48 hrs by two fold serial dilution method; assay type: functional
Staphylococcus aureus [24] = assay: Antibacterial activity against ciprofloxacin/gentamicin/oxacillin/pencillin/linezolid resistant Staphylococcus aureus NRS119 assessed as inhibition of bacterial growth measured after 48 hrs by two fold serial dilution method; assay type: functional
Klebsiella pneumoniae = assay: Antibacterial activity against Klebsiella pneumoniae ATCC700603 assessed as inhibition of bacterial growth measured after 48 hrs by two fold serial dilution method; assay type: functional
Enterococcus faecium [25] = assay: Antibacterial activity against vancomycin susceptible Enterococcus faecium119-39A clinical isolate assessed as inhibition of bacterial growth measured after 48 hrs by two fold serial dilution method; assay type: functional; details: 119-39A
Staphylococcus aureus [26] = assay: Antibacterial activity against methicillin/oxacillin/tetracycline resistant vancomycin resistant Staphylococcus aureus NRS100 assessed as inhibition of bacterial growth measured after 48 hrs by two fold serial dilution method; assay type: functional
Klebsiella aerogenes = assay: Antibacterial activity against Klebsiella aerogenes ATCC35029 assessed as inhibition of bacterial growth measured after 48 hrs by two fold serial dilution method; assay type: functional
Clostridioides difficile [27] = assay: Antibacterial activity against Clostridium difficile NR49294 isolated from human feces assessed as inhibition of bacterial growth measured after 48 hrs by two fold serial dilution method; assay type: functional
Clostridioides difficile [28] = assay: Antibacterial activity against Clostridium difficile ATCC 43255 assessed as damage in cell wall at 8 time MIC incubated for 24 hrs by scanning electron microscopy based analysis; assay type: functional, organism-based
Clostridioides difficile [29] = assay: Antibacterial activity against Clostridium difficile ATCC 43255 assessed as as time duration of post-antibiotic effect for suppression of bacterial growth at 2 times MIC incubated for 1 hr in broth solution; assay type: functional
Pseudomonas aeruginosa = assay: Antibacterial activity against Pseudomonas aeruginosa ATCC27853 assessed as inhibition of bacterial growth measured after 48 hrs by two fold serial dilution method; assay type: functional
Clostridioides difficile [30] = assay: Antibacterial activity against Clostridium difficile NR49292 assessed as inhibition of bacterial growth measured after 48 hrs by two fold serial dilution method; assay type: functional
Clostridioides difficile [31] = assay: Antibacterial activity against Clostridium difficile NR49305 isolated from human feces assessed as inhibition of bacterial growth measured after 48 hrs by two fold serial dilution method; assay type: functional
Clostridioides difficile [32] = assay: Antibacterial activity against Clostridium difficile NR49310 isolated from human feces assessed as inhibition of bacterial growth measured after 48 hrs by two fold serial dilution method; assay type: functional

With `O=[N+]([O-])c1c[nH]c(-c2nc(-c3ccc(OC4CCCC4)cc3)no2)n1` as the molecule, how does the MIC (Acinetobacter baumannii) read?
Its MIC is over 128 µg/mL.

And the “fold change (FC)” value (Clostridioides difficile [1])?
Its value is 4.

And the MIC (Clostridioides difficile [2])?
The MIC was 1 µg/mL (≈ 2.93 µM).

And the MIC (Escherichia coli)?
Its MIC is over 128 µg/mL.

What about the MIC (Enterococcus faecalis) of the same molecule?
The MIC was 128 µg/mL (≈ 375 µM).

What about the MIC (Clostridioides difficile [3]) of the same molecule?
Its MIC is 0.25 µg/mL (≈ 0.732 µM).

And the Ratio [4]?
Its Ratio is 2.

What about the MIC (Enterococcus faecium [5]) of the same molecule?
The MIC was 128 µg/mL (≈ 375 µM).

And the MIC (Corynebacterium sp.)?
Its MIC is over 128 µg/mL.

What about the MIC (Clostridioides difficile [6]) of the same molecule?
Its MIC is 0.125 µg/mL (≈ 0.366 µM).

And the Time (Clostridioides difficile [7])?
Its Time is 3 h.

And the MIC [8]?
Its MIC is 32 µg/mL (≈ 93.8 µM).

What about the MIC (Streptococcus pyogenes) of the same molecule?
The MIC was over 128 µg/mL.

And the IC50 (THP-1)?
Its IC50 is over 128 µg/mL.

What about the Activity (Clostridioides difficile [9]) of the same molecule?
Its Activity is 4 log10CFU/ml.

And the selectivity ratio [10]?
Its selectivity ratio is 214.

What about the “fold change (FC)” value (Clostridioides difficile [11]) of the same molecule?
Its value is 8.

What about the MIC (Clostridioides difficile [12]) of the same molecule?
The MIC was 0.125 µg/mL (≈ 0.366 µM).

What about the selectivity ratio [13] of the same molecule?
The selectivity ratio was over 512.

And the MBC (Clostridioides difficile [14])?
The MBC was 0.5 µg/mL (≈ 1.46 µM).

What about the MIC [15] of the same molecule?
Its MIC is over 128 µg/mL.

What about the MIC (Clostridioides difficile [16]) of the same molecule?
The MIC was 0.25 µg/mL (≈ 0.732 µM).

What about the MIC (Clostridioides difficile [17]) of the same molecule?
Its MIC is 0.125 µg/mL (≈ 0.366 µM).

And the MIC (Clostridioides difficile [18])?
The MIC was 2 µg/mL (≈ 5.86 µM).

And the MIC (Eubacterium sp.)?
Its MIC is 64 µg/mL (≈ 188 µM).

And the MIC (Clostridioides difficile [19])?
Its MIC is 0.25 µg/mL (≈ 0.732 µM).

And the “fold change (FC)” value (Clostridioides difficile [20])?
Its value is 2.

What about the Time (Clostridioides difficile [21]) of the same molecule?
The Time was 7 h.

And the MIC (Clostridioides difficile [22])?
Its MIC is 0.5 µg/mL (≈ 1.46 µM).

And the IC50 (HepG2)?
The IC50 was 53.4 µg/mL (≈ 156 µM).

And the MIC (Bacteroides fragilis)?
Its MIC is 128 µg/mL (≈ 375 µM).

What about the Time (Clostridioides difficile [23]) of the same molecule?
Its Time is 7 h.

What about the MIC (Lactobacillus gasseri) of the same molecule?
The MIC was over 128 µg/mL.

And the MIC (Staphylococcus aureus [24])?
The MIC was 32 µg/mL (≈ 93.8 µM).

And the MIC (Klebsiella pneumoniae)?
The MIC was over 128 µg/mL.

What about the MIC (Enterococcus faecium [25]) of the same molecule?
Its MIC is 128 µg/mL (≈ 375 µM).

And the MIC (Staphylococcus aureus [26])?
Its MIC is 64 µg/mL (≈ 188 µM).

And the MIC (Klebsiella aerogenes)?
Its MIC is over 128 µg/mL.

And the MIC (Clostridioides difficile [27])?
Its MIC is 0.5 µg/mL (≈ 1.46 µM).

And the Activity (Clostridioides difficile [28])?
Its Activity is “Active”.

And the Time (Clostridioides difficile [29])?
The Time was 5 h.

What about the MIC (Pseudomonas aeruginosa) of the same molecule?
The MIC was over 128 µg/mL.

What about the MIC (Clostridioides difficile [30]) of the same molecule?
Its MIC is 0.125 µg/mL (≈ 0.366 µM).

And the MIC (Clostridioides difficile [31])?
The MIC was 0.125 µg/mL (≈ 0.366 µM).

What about the MIC (Clostridioides difficile [32]) of the same molecule?
Its MIC is 0.25 µg/mL (≈ 0.732 µM).
